Experimental data from US10240124B2, “Cell culture substrate comprising a laminin and a cadherin” (BioLamina AB, priority 2011, dated 2019).

Assays:
hES cells [1] = test: Cell survival assay, 24 hours (Example 2); format: cell-based, human; conditions: for survival of hES cells 24 hours after plating from single cell suspension: O3 medium, absence of ROCK inhibitor; for survival of dissociated hES cells after 24 hours: quantified survival assay
Procedure: (§1) Briefly, 96-well plates were coated by extracellular matrix proteins as described above and blocked by O3 medium containing bovine serum albumin. The ES cells were plated at cell density of 50,000 cells/cm^2 onto extracellular matrix-coated plates and left to adhere for 1 hour in a cell incubator. After that the plates were washed 3 times with the medium to remove the non-adherent cells, and then the adherent cells were fixed for 20 minutes by 5% glutaraldehyde, stained by 0.1% Crystal Violet. (Kebo Lab, Spanga, Sweden, http://www.kebolab.se). After one hour and 3 washes with water, Crystal Violet was extracted with 10% acetic acid and quantified by measuring optical density at 570 nm. All the experiments were performed in quadruplicate.
The survival assay was performed as described for the cell adhesion assay above, except that the cells were left in the cell incubator for 24 hours. For inhibition of survival assay, the cells were kept in a medium with function blocking antibodies at the concentrations recommended by the manufacturer or pathway inhibitors at concentrations indicated in the text for 30 minutes, and then plated on the coated dishes. All the experiments were performed in quadruplicate.
Pluripotent hES cells express α1, α5, β1, β2 and γ1 laminin chains. To compare the adhesion and clonal survival of hES cells plated from single cell suspension to different coating substrata, hES cells growing as monolayers on LN-511 or as clusters on a feeder layer were trypsinized into single cell suspension in O3 medium and plated on cell culture dishes coated with Matrigel, LN-111, LN-511, LN-521 or a mixture of LN-511 and LN-521, in the absence or presence of a ROCK inhibitor (Y-27632) and analyzed after 24 hours.

hES cells [2] = test: Clonal survival of individualized hES cells, alkaline phosphatase staining (Example 4); format: cell-based, human
Procedure: hES cells were plated in mTeSR1 medium on different coatings at a density of 250 cells per cm^2 and monitored after 5 days in culture using an alkaline phosphatase staining kit.
Next, combinations of laminin-521 and E-Cadherin were tested to determine whether the combinations could sustain clonal survival of the cells. Fixed amounts of laminin-521 were used for the cell culture dish coating in combination with titrated E-Cadherin.
Additional tests were performed to test the effects of various modifications to the mTeSR1 medium. A mixture of E-Cadherin to laminin-521 in a ratio of about 1:10 w/w was used to coat the plates. […] Time-lapse photography of the cells confirmed that laminin-521/E-Cadherin coatings facilitated cell survival through proliferation of the single cells, not through the aggregation of different cells.

human ES cells (HS181) = test: Cell adhesion assay, Crystal Violet (Example 1); format: cell-based; conditions: for cells remaining attached / surviving 24 hours after plating: HS181 completely dissociated, FIG. 4
Procedure: Ninety-six-well tissue cell culture plates were coated overnight at 4° C. with sterile solutions of the ECM proteins mouse LN-111 (Invitrogen), human recombinant LN-511, and human recombinant LN-521, all at a concentration of 30 μg/ml (5 μg/cm^2). For control cells, BD Matrigel™ hESC qualified (BD Biosciences) was used according to the manufacturer's instructions.
The assay was performed as described (Extracellular Matrix Protocols, 2000). Briefly, 96-well plates were coated by extracellular matrix proteins as described above and blocked by O3 medium containing bovine serum albumin. The ES cells were plated at a cell density of 600 cell/mm^2 upon extracellular matrix-coated plates and were left to adhere for either 1 hour or 1 day at the cell incubator. Non-adherent cells were washed away, and adherent cells were fixed for 20 min by 5% glutaraldehyde, stained by 0.1% Crystal Violet.

[3] = system: human embryonic stem cells; test: Survival of hES cells plated in single cell suspension on precoated dishes (description); format: cell-based; conditions: O3 medium, 30 Kcells/cm^2
Source text: In other aspects, the present disclosure provides a new material, isolated laminin-521, which permits human embryonic stem cell survival after dissociation into single cell suspension. The stem cells were dissociated into single cell suspension by Trypsin-EDTA treatment, pelleted by centrifugation, resuspended into O3 medium, filtered through a 40 μm sieve, and plated at a density of 30 Kcells/cm^2 on cell culture dishes precoated by either isolated laminin-521, laminin-511, or Matrigel. After one day in culture, the cells plated on Matrigel died, as is known in the art.

hES cells [4] = test: Cell adhesion assay, 1 hour (Example 2); format: cell-based, human; conditions: compared with Matrigel or LN-111, not shown
Procedure: Tissue cell culture plates were coated overnight at 4° C. with sterile solutions of the ECM proteins, such as human recombinant LN-521, all at a concentration of 30 μg/ml (5 μg/cm^2). Control plates were coated with Matrigel according to the STEMCELL Technologies' instructions. Prior to use, dishes were pre-warmed in an incubator for one hour after which prewarmed O3 medium was added without additional washing of the dish. After applying a fresh LN-521 solution to a new dish, the remaining LN-521 solution could be used at least once more. All the adhesion, survival, and inhibition of survival experiments were carried out using fresh coating materials.
as §1

myosin light chain (MLC) = test: Western blot of phosphorylated myosin light chain; format: cell-based, human; conditions: one and six hours after plating, FIG. 12 and 13
Procedure: HS 181 cells were trypsinized into single cell suspension as described above. For inhibition experiments, the cells were kept in O3 medium with blocking antibodies or pathway inhibitors for 30 minutes and then 450K cells were plated on 35 mm dishes precoated with the appropriate matrix coating. For other experiments, same number of cells was plated directly after trypsinization. […] After two washings in ice-cold PBS, the plates with cells were snap frozen in liquid nitrogen and stored at −80° C. To prepare samples for western blots and ELISA, the plates were slowly thawed and kept on ice with 100-150 μl of lysis buffer (50 mM Tris-HCl, pH7.5, 150 mM NaCl, 0.5% deoxycholate, 0.5% SDS, 1% Triton X-100, 1% Igepal, Complete™ (Roche) and Phospho-Stop™ (Roche)) on top. Then, the cells were scraped, pipetted and sheared through a 27 G ¾″ needle. After that, the cell pellets were clarified by centrifugation at 16,100 rcf for 15 minutes at 4° C. For western blots, 4-12% gradient gels were used for SDS electrophoresis and the proteins were transferred to PVDF membranes. The membrane was hybridized with the antibody of interest according to the manufacturer's instructions. […] For the densitometry analysis the films were scanned at 2,400 dpi and analyzed by the Chemilmager5500 program (1 D-Multi Line densitometry mode). […]

Integrin α6β1 = Integrin α6β1 (Homo sapiens, UniProt P05556+P23229); conditions: cited from earlier work
Human ES cells = conditions: over 3 months; engraftment into SCID mice; cited from earlier work
hES cells on LN-521 = test: Inhibition of survival assay on LN-521; format: cell-based, human; conditions: medium contained bFGF, FIG. 16
Source text: InSolution™ LY 294002 (a specific Akt inhibitor), InSolution™ Wortmannin (a specific PI3K inhibitor), and InSolution™ 98059 (a specific MEK1/Erk inhibitor) were purchased from Calbiochem. Antibodies to phospho-Akt (#4060), total-Akt (#9272), phospho-Erk (#9101), and total-Erk (#9102) were obtained from Cell Signaling Technology. PathScan Phospho-Akt1 sandwich ELISA kit (#7160), PathScan total Akt1 sandwich ELISA kit (#7170), PathScan Phospho-Akt2 sandwich ELISA kit (#7048), and PathScan total Akt2 sandwich ELISA kit (#7046) were also purchased from Cell Signaling Technology. Antibodies to Calnexin (#ab10286) were obtained from Abcam. Function blocking antibodies to various integrin subunits, mouse isotype antibodies, and α-dystroglycan were purchased from Millipore. Since function blocking antibodies to αV (MAB1980) and α6 (MAB1378) were presented in a solution with sodium azide, before the inhibition of survival experiment all the antibodies to alpha integrin subunits were dialyzed thrice against O3 medium for 2 hours each time. Antibodies to Lutheran receptor and α-fetoprotein, as well as rat isotype control antibodies were obtained from R&D Systems. Antibodies to Oct4, Nanog, SSEA-4, smooth muscle actin and MAP-2 were purchased from Millipore. […]

[5] = O3 medium without any additives

Integrin α6β1, sequence (P23229 24-1130): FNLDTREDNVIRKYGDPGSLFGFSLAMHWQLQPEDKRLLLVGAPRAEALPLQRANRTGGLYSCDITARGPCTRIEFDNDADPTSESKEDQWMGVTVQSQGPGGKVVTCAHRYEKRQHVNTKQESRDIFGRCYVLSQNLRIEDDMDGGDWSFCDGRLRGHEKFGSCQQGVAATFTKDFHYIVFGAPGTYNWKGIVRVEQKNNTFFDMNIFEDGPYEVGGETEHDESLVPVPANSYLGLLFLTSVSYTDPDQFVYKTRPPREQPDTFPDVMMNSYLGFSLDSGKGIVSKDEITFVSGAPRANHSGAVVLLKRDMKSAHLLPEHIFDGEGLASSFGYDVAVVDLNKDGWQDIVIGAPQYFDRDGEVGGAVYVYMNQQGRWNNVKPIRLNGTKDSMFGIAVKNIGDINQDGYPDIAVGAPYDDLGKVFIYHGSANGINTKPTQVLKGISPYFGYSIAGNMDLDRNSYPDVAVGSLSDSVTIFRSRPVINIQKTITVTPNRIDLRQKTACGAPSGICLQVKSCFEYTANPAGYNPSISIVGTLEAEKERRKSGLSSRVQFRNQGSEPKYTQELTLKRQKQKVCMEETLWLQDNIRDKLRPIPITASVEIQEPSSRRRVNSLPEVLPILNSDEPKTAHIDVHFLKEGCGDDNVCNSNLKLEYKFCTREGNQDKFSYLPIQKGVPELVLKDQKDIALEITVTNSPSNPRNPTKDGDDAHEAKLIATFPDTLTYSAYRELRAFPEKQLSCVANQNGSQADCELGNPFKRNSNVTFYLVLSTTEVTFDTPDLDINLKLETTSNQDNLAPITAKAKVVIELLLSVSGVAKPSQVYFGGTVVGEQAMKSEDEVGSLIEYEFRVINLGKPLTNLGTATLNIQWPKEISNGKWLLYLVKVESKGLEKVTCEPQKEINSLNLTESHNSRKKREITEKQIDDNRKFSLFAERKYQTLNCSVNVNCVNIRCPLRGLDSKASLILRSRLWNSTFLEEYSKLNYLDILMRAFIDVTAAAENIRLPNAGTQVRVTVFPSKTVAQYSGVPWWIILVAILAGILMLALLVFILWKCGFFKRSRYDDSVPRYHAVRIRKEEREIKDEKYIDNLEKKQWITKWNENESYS
Integrin α6β1, sequence (P05556 21-798): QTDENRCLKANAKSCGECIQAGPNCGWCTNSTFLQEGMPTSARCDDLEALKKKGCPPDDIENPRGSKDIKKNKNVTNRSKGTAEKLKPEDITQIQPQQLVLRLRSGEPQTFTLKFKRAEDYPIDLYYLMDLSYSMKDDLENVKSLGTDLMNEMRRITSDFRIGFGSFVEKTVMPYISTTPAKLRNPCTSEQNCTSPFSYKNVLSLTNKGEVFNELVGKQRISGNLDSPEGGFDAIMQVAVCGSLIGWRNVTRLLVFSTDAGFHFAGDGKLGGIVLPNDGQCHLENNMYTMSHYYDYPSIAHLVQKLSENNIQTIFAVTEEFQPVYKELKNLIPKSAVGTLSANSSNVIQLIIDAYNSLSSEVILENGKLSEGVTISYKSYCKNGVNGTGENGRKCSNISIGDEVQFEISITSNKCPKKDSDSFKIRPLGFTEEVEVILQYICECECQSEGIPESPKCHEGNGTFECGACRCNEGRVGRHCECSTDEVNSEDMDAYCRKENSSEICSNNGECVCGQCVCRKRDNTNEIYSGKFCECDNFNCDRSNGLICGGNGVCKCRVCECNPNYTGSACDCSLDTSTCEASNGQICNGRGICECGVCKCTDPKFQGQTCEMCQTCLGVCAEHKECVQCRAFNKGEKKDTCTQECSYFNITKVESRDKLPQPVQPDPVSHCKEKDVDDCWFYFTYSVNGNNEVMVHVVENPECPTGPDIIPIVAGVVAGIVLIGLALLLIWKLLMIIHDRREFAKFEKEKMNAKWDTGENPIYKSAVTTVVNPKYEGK

LN-121: human recombinant laminin of α1, β2 and γ1 chains from triple-transfected HEK293 cells
survival of hES cells 24 hours after plating from single cell suspension (hES cells [1]): failed to survive

albumin: albumin of the mTeSR1 medium, concentration increased 2×
effect of 2× increase in albumin concentration on clonal survival (hES cells [2]; laminin-521/E-Cadherin matrix, mTeSR1): significantly improved clonal survival

LN-111: mouse laminin-111 (Invitrogen), indicated as LN-111 if not otherwise stated
cells remaining attached / surviving 24 hours after plating (human ES cells (HS181); [5]): almost no cells remained attached | survival of hES cells 24 hours after plating from single cell suspension (hES cells [1]): did not survive | survival of dissociated hES cells after 24 hours (hES cells [1]): almost no cells had survived

LN-511: human recombinant laminin-511, control coating
survival of human embryonic stem cells after one day in culture [3]: in most cases on laminin-511 survived | cells remaining attached / surviving 24 hours after plating (human ES cells (HS181); [5]): at a less extent | adhesion of human ES cells at 1 hour (human ES cells (HS181); O3 medium without any additives, without Y-27632, FIG. 6): roughly the same | spreading of the cells after one hour (hES cells [4]): clearly better | survival of hES cells 24 hours after plating from single cell suspension (hES cells [1]): did so as single cells | survival of dissociated hES cells after 24 hours (hES cells [1]): very few | phosphorylation of MLC compared with cells on Matrigel and LN-111 (myosin light chain (MLC)): even higher | binding affinity of integrin α6β1 compared with LN-111 (Integrin α6β1): higher than that for LN-111 | pluripotency of human ES cells in long-term culture (Human ES cells): maintain pluripotency and can generate teratomas

human recombinant LN-111: human recombinant laminin of α1, β1 and γ1 chains from triple-transfected HEK293 cells
survival of hES cells 24 hours after plating from single cell suspension (hES cells [1]): failed to survive

C[C@@H](N)[C@H]1CC[C@H](C(=O)Nc2ccncc2)CC1 [Y-27632, reference compound]
cells remaining attached after one day with ROCK inhibitor (human ES cells (HS181); O3 medium treated with Y-27632, five coatings, FIG. 5): remained attached on all 5 coatings | survival of hES cells 24 hours after plating in the presence of ROCK inhibitor (hES cells [1]; Y-27632, all coatings): survived on all surfaces

COc1cccc(-c2cc(=O)c3ccccc3o2)c1N [PD 98059]
hES cell survival 24 hours after plating on LN-521 with pathway inhibitor (hES cells on LN-521): did not affect the survival that severely

B1: E-Cadherin: epithelial-cadherin, most abundant cadherin isoform on the human ES cell surface; coating protein (protein, UniProt P12830 155-882, looked up)
Cadherin-1: DWVIPPISCPENEKGPFPKNLVQIKSNKDKEGKVFYSITGQGADTPPVGVFIIERETGWLKVTEPLDRERIATYTLFSHAVSSNGNAVEDPMEILITVTDQNDNKPEFTQEVFKGSVMEGALPGTSVMEVTATDADDDVNTYNAAIAYTILSQDPELPDKNMFTINRNTGVISVVTTGLDRESFPTYTLVVQAADLQGEGLSTTATAVITVTDTNDNPPIFNPTTYKGQVPENEANVVITTLKVTDADAPNTPAWEAVYTILNDDGGQFVVTTNPVNNDGILKTAKGLDFEAKQQYILHVAVTNVVPFEVSLTTSTATVTVDVLDVNEAPIFVPPEKRVEVSEDFGVGQEITSYTAQEPDTFMEQKITYRIWRDTANWLEINPDTGAISTRAELDREDFEHVKNSTYTALIIATDNGSPVATGTGTLLLILSDVNDNAPIPEPRTIFFCERNPKPQVINIIDADLPPNTSPFTAELTHGASANWTIQYNDPTQESIILKPKMALEVGDYKINLKLMDNQNKDQVTTLEVSVCDCEGAAGVCRKAQPVEAGLQIPAILGILGGILALLILILLLLLFLRRRAVVKEPLLPPEDDTRDNVYYYDEEGGGEEDQDFDLSQLHRGLDARPEVTRNDVAPTLMSVPRYLPRPANPDEIGNFIDENLKAADTDPTAPPYDSLLVFDYEGSGSEAASLSSLNSSESDKDQDYDYLNEWGNRFKKLADMYGGGEDD
clonal survival of individualized hES cells (hES cells [2]; mTeSR1, 250 cells per cm^2, 5 days): Neither laminin-521 nor E-Cadherin alone permitted efficient clonal survival
